Consider 5 compounds from patent publication US20080096807A1, “Cyclic vasoactive intestinal peptide receptor-2 agonists” (priority 2006, published 2008).

Numbered stars: 1 amine (or outer) side, 2 acyl side, 3 side chain; on linkers, the order of the positions; unused ones are H or OH. Bridge positions count the residues as written; N and C are the ends. Square brackets hold non-standard residues; d marks the D form. Peptide text beside a SMILES is read from it. ξ: configuration not given here. X1 = N=C(N)CNCC[C@H](N[*:1])C(=O)[*:2]; Thr(3ξ) = CC(O)[C@H](N)C(=O)O; Nle = CCCC[C@H](N)C(=O)O

One data set has as its target T1, VPAC2 receptor (Homo sapiens, UniProt P41587).
T1 construct: The human T-lymphoid cell line Sup-Ti, which expresses the VPAC2 receptor; host or cells: Sup-T1 (Sup-Ti [sic]) human T-lymphoid cell line
T1 sequence (P41587 24-438): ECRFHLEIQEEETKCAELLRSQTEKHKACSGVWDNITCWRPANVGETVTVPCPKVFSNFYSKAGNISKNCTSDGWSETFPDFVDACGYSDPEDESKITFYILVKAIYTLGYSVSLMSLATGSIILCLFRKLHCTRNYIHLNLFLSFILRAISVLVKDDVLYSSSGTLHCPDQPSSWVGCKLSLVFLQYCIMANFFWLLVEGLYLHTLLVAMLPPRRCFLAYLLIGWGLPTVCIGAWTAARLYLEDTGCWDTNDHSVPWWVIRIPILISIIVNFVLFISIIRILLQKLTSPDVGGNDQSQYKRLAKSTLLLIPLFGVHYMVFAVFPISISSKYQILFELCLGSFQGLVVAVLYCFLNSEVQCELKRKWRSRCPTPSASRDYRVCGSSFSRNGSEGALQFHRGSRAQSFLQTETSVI
Description: Sup-T1 cAMP agonist assay. Particulars: human T-lymphoid cell line Sup-T1 expressing VPAC2 receptor; cAMP EIA; 5 min at room temperature; read-out: Sup-T1 cAMP EC50. It is filed as cell-based. Here is the method:
The human T-lymphoid cell line Sup-Ti, which expresses the VPAC2 receptor, was obtained from the American Type Culture Collection (ATCC, CRL-1942) and maintained in growth medium at densities between 0.2 and 2×10^6 cells/ml in a 37° C. CO2 incubator. The growth medium was RPMI 1640 (Invitrogen) supplemented with 25 mM HEPES buffer and 10% fetal bovine serum (Gemini Bioproducts).
To evaluate VPAC2 agonist compound activity, cells in log-phase growth were washed once with growth medium at room temperature and plated into 96-well plates at a density of 4×10^4 cells per well in 150 uL of growth medium. Fifty uL of the compounds to be tested, prepared at appropriate concentrations in growth medium, were then added to designated wells. After 5 min at room temperature, the cells were lysed by adding 25 uL of lysis reagent 1A (cAMP Biotrak EIA system, Amersham Biosciences, RPN225) to each well. The 96-well plates were kept at room temperature for 10 min with shaking and then stored at 4° C. until analysis for cAMP (within 2 hr).
Cyclic AMP levels were determined in 100 uL of each lysate using the cAMP Biotrak Enzymeimmunoassay (EIA) kit according to the manufacture's instructions (Amersham Biosciences, RPN225). The activity of each VPAC2 agonist compound (EC50 value) was estimated by fitting the 7-concentration dose response data to a sigmoidal dose-response equation provided by the GraphPad Prism program (GraphPad Software, Inc.).

In data set [1] the test system is LPS-induced lung inflammation in male C57BL/6 mice. As to the kind of experiment: LPS-induced lung inflammation in male C57BL/6 mice (BAL neutrophilia). Format: in vivo. To be noted: Dose 0.01%, BAL fluid neutrophilia. Here is the method:
C57bl/6 mice are pretreated with vehicle or drug prior to an aerosol expose to lipopolysacchride (LPS, 500 μg/ml in sterile saline) for 15-30 minutes. The aerosol is generated by a Pari Ultra neb jet nebulizer, the outlet of which is connected to a small clear plastic chamber [H×W×D, 10.7×25.7×11 cm (4×10×4.5 in)] containing the animals. Bronchoalveolar lavage (BAL) is performed 24 hr later to determine the intensity of cell inflammation. BAL procedure is performed as described below.
Mice are pretreated with vehicle or drug prior to an intranasal administration of lipopolysacchride (0.05-0.3 mg/kg in sterile saline; 50 μl total volume, 25 μl/nostril). Intranasal administration is performed by presenting small droplets of the dosing solution at the nostril using a 25-50 μl eppendorff pipet. BAL is performed 3 to 24 h post LPS challenged as described above to determine the intensity of cell inflammation.
24 h following LPS exposure, animals are anesthetized with pentobarbital (80-100 mg/kg, i.p.), ketamine/xyzaline (80-120 mg/kg/2-4 mg/kg, i.p.) or urethane (1.5-2.4 g/kg, i.p.); and through a small midline neck incision (15-20 mm), the trachea is exposed and cannulated with 20-gauge tubing adapter. Lungs are lavaged with 2×1 ml sterile Hank's balanced salt solution without Ca++ and Mg++(HBSS). Lavage fluid is recovered after 30 sec by gentle aspiration and pooled for each animal. Samples are then centrifuged at 2000 rpm for 10 minutes at 5° C. Supernatant is aspirated, and red blood cells are lysed from the resulting pellet with 0.5 ml distilled water for 30 sec before restoring osmolarity to the remaining cells by the addition of 5 ml of HBSS. Samples are recentrifuged at 2000 rpm for 10 minutes at 5° C. and supernatant aspirated. The resulting pellet is resuspended in 1 ml of HBSS. Total cell number is determined by Trypan Blue (Sigma Chemical, St. Louis, Mo.) exclusion from an aliquot of cell suspension using a hemocytometer or coulter counter. For differential cell counts, an aliquot of the cell suspension is centrifuged in a Cytospin (5 min, 1300 rpm; Shandon Southern Instruments, Sewickley, Pa.) and the slides fixed and stained with a modified Wright's stain (Hema 3 stain kit, Fisher Scientific). Standard morphological criteria is used in classifying at least 300 cells under light microscopy. Data in Table 3 is expressed as BAL cells×10^4/animal for neutrophils and total cells, or percent inhibition of the LPS induced BAL fluid neutrophilia response.

The target of data set [2] is T2, human neutrophil elastase (Homo sapiens, UniProt P08246).
T2 sequence (P08246 30-247 limits assumed): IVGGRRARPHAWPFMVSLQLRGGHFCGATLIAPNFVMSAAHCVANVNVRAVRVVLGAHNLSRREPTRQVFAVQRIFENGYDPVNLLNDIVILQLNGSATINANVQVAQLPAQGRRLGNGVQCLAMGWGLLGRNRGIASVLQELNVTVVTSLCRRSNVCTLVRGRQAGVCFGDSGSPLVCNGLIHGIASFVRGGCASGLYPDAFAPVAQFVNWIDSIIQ
As to the kind of experiment: Peptide stability to neutrophil elastase (RP HPLC ESI MS). Particulars: halftime with human neutrophil elastase 1 to 2 μg/mL in PBS, ambient temperature, normalized to halftime of the reference standard.
Description: The proteolytic stabilities of peptide analogs were established with reversed phase high pressure liquid chromatography (RP HPLC) electrospray ionization mass spectrometry (ESI MS). Peptide analogs were incubated with human neutrophile elastase and the quantity of undigested analogs was determined by ESI MS at appropriate time points. Multiple peptide analogs could be included in one experiment as long as they could be differentiated by HPLC retention time and/or by molecular weight. Ac-His Ac-[sequence]Nle-[sequence]NH2 was used in all experiments as a control and as a reference standard. The simultaneous use of multiple peptide analogs together with a reference standard allowed for compensation for variations in the proteolytic fidelity of the enzyme over the multiple experiments. Integrated ion currents obtained for the individual undigested peptide were used for quantitation. For calculation of halftime first-order kinetic behavior was assumed and all calculations were normalized to the halftime of the reference standard.
Peptide stock solutions were prepared in water to a concentration of 2.5 mg/mL. Unless in use, all stock solutions were kept at −20° C. […] Concentrations of the peptide analogs were adjusted accordingly. In order to do the proteolytic digestion, peptides were dissolved in phosphate buffered saline (PBS) to a concentration of 0.1 mg/mL. As many as six different peptide analogs were mixed into one 50 μL reaction volume. The reference standard was added to all experiments as a reference and internal standard. Elastase (Human Neutrophil, Calbiochem, Cat # 324681) was added from an elastase stock solution to a concentration of 1 to 2 μg/mL. Different amounts of the enzyme were chosen to compensate for the differences in the proteolytic stabilities of the peptide analogs. Previously, a stock solution of elastase was prepared in water at a concentration of 1 mg/mL. Small aliquots of the enzyme stock solution were kept at −20° C. to better maintain the enzyme activity by limiting the number of thaw and freeze cycles.
The digestion was done at ambient temperature in an autosampler tube within the autosampler of the HPLC system (Agilent 1100 Series). For a time course, 5 μL aliquots were injected in 70 minute intervals onto the reversed phase HPLC column (Phenomenex, Luna C18, 3μ, 100 ↑, 150×2.00 mm). For the starting time point an aliquot was injected just prior to the addition of the proteolytic enzyme. A total of eight time points could be recorded from one experiment, including the starting point. Peptides were separated on the reversed phase column with a 50 minute gradient of 5% to 30% organic phase. The aqueous phase was 0.05% (v/v) of trifluoroacetic acid in water and the organic one was 0.045% (v/v) of trifluoroacetic acid in acetonitrile. Absorbances were recorded at 214 and 280 nm respectively. All of the column effluent was introduced into the turbo V source of the electrospray ionization mass spectrometer (ABI 4000 QTrap LC/MS/MS System). Mass spectra were acquired in Q3MS mode in a mass range to include all triply charged ions of the non degraded peptide analogs. Care was taken to assure that peptide analogs could clearly be differentiated either by the chromatographic retention time or by the difference in molecular weight. Relative quantities of the respective undigested peptide analog were calculated from the integrated total ion current. A window of 2.5 Da was chosen and the manufacturer's software was used to integrate the individual ion currents. The overall halftime of an individual peptide analog was calculated by assuming first-order kinetic behavior and was normalized with respect to the halftime of the reference standard.

With `CCCC[C@H](NC(=O)[C@H](C)NC(=O)[C@H](CCCCN)NC(=O)[C@H](CCCNC(=N)N)NC(=O)[C@H](CC(C)C)NC(=O)[C@H](CCCCN)NC(=O)[C@@H](NC(=O)[C@H](Cc1ccc(O)cc1)NC(=O)[C@H](CC(N)=O)NC(=O)[C@H](CCC(=O)O)NC(=O)[C@@H](NC(=O)[C@H](Cc1ccccc1)NC(=O)[C@H](CO)NC(=O)[C@H](C)NC(=O)[C@H](CC(=O)O)NC(=O)[C@H](CO)NC(=O)[C@H](Cc1c[nH]cn1)NC(C)=O)C(C)O)C(C)O)C(=O)N[C@@H](CCC(=O)O)C(=O)N[C@@H](C)C(=O)N[C@@H](CCCCN)C(=O)N[C@H]1CCCCNC(=O)C[C@@H](C(=O)N[C@@H](CC(C)C)C(=O)N[C@@H](CCCCN)C(=O)N[C@@H](CCCCN)C(=O)NCC(=O)NCC(=O)N[C@H](C(N)=O)C(C)O)NC(=O)[C@H](CC(N)=O)NC(=O)[C@H](CC(C)C)NC(=O)[C@H](Cc2ccc(O)cc2)NC1=O` (stereo partly drawn) [Example 10] (Ac-HSDASF[Thr(3ξ)]ENY[Thr(3ξ)]KLRKA[Nle]EAKKYLNDLKKGG[Thr(3ξ)]-NH2; lactam 21-25), the half-maximal effective concentration (EC50) (usually the concentration at which the effect is half-maximal) on VPAC2 receptor came to 447 nM. In data set [1], the “Inhibition of LPS-induced neutrophilia” value was “++ (++ >30%)”. In data set [2], the Relative elastase stability was 7.4.
In the case of `CCCC[C@H](NC(=O)[C@H](CCC(N)=O)NC(=O)[C@H](CCCCN)NC(=O)[C@H](CCCNC(=N)N)NC(=O)[C@H](CC(C)C)NC(=O)[C@H](CCCCN)NC(=O)[C@@H](NC(=O)[C@H](Cc1ccc(O)cc1)NC(=O)[C@H](CC(N)=O)NC(=O)[C@H](CCC(=O)O)NC(=O)[C@@H](NC(=O)[C@H](Cc1ccccc1)NC(=O)[C@H](CO)NC(=O)[C@H](C)NC(=O)[C@H](CC(=O)O)NC(=O)[C@H](CO)NC(=O)[C@H](Cc1c[nH]cn1)NC(C)=O)C(C)O)C(C)O)C(=O)N[C@@H](C)C(=O)N[C@@H](C)C(=O)N[C@@H](CCCCN)C(=O)N[C@H]1CCCCNC(=O)C[C@@H](C(=O)N[C@@H](CC(C)C)C(=O)N[C@@H](CC(C)C)C(=O)N[C@@H](CC(N)=O)C(=O)NCC(=O)NCC(=O)N[C@H](C(N)=O)C(C)O)NC(=O)[C@H](CC(N)=O)NC(=O)[C@H](CC(C)C)NC(=O)[C@H](Cc2ccc(O)cc2)NC1=O` (stereo partly drawn) [Example 11] (Ac-HSDASF[Thr(3ξ)]ENY[Thr(3ξ)]KLRKQ[Nle]AAKKYLNDLLNGG[Thr(3ξ)]-NH2; lactam 21-25), the EC50 at VPAC2 receptor amounted to 16.8 nM. The “Inhibition of LPS-induced neutrophilia” value in data set [1] was “++ (++ >30%)”. In data set [2], this compound came in with a Relative elastase stability of 2.4.
Take `CCCC[C@H](NC(=O)[C@H](CCNCC(=N)N)NC(=O)[C@H](CCCCN)NC(=O)[C@H](CCCNC(=N)N)NC(=O)[C@H](CC(C)C)NC(=O)[C@H](CCCCN)NC(=O)[C@@H](NC(=O)[C@H](Cc1ccc(O)cc1)NC(=O)[C@H](CC(N)=O)NC(=O)[C@H](CCC(=O)O)NC(=O)[C@@H](NC(=O)[C@H](Cc1ccccc1)NC(=O)[C@H](CO)NC(=O)[C@H](C)NC(=O)[C@H](CC(=O)O)NC(=O)[C@H](CO)NC(=O)[C@H](Cc1c[nH]cn1)NC(C)=O)C(C)O)C(C)O)C(=O)N[C@@H](C)C(=O)N[C@@H](C)C(=O)N[C@@H](CCCCN)C(=O)N[C@H]1CCCCNC(=O)C[C@@H](C(=O)N[C@@H](CC(C)C)C(=O)N[C@@H](CCCCN)C(=O)N[C@@H](CCCCN)C(=O)NCC(=O)NCC(=O)N[C@H](C(N)=O)C(C)O)NC(=O)[C@H](CC(N)=O)NC(=O)[C@H](CC(C)C)NC(=O)[C@H](Cc2ccc(O)cc2)NC1=O` (stereo partly drawn) [Example 13] (Ac-HSDASF[Thr(3ξ)]ENY[Thr(3ξ)]KLRK[X1][Nle]AAKKYLNDLKKGG[Thr(3ξ)]-NH2; lactam 21-25): the half-maximal effective concentration (EC50) on VPAC2 receptor was 17.6 nM. The “Inhibition of LPS-induced neutrophilia” value in data set [1] is “++ (++ >30%)”. In addition, in data set [2], the Relative elastase stability is recorded as 1.7.
In the same order, the values of `CCCC[C@H](NC(=O)[C@H](CCCNC(=N)N)NC(=O)[C@H](CCCCN)NC(=O)[C@H](CCCNC(=N)N)NC(=O)[C@H](CC(C)C)NC(=O)[C@H](CCCCN)NC(=O)[C@@H](NC(=O)[C@H](Cc1ccc(O)cc1)NC(=O)[C@H](CC(N)=O)NC(=O)[C@H](CCC(=O)O)NC(=O)[C@@H](NC(=O)[C@H](Cc1ccccc1)NC(=O)[C@H](CO)NC(=O)[C@H](C)NC(=O)[C@H](CC(=O)O)NC(=O)[C@H](CO)NC(=O)[C@H](Cc1c[nH]cn1)NC(C)=O)C(C)O)C(C)O)C(=O)N[C@@H](CCC(=O)O)C(=O)N[C@@H](C)C(=O)N[C@@H](CCCCN)C(=O)N[C@H]1CCCCNC(=O)C[C@@H](C(=O)N[C@@H](CC(C)C)C(=O)N[C@@H](CCCCN)C(=O)N[C@@H](CCCCN)C(=O)NCC(=O)NCC(=O)N[C@H](C(N)=O)C(C)O)NC(=O)[C@H](CC(N)=O)NC(=O)[C@H](CC(C)C)NC(=O)[C@H](Cc2ccc(O)cc2)NC1=O` (stereo partly drawn) [Example 15] (Ac-HSDASF[Thr(3ξ)]ENY[Thr(3ξ)]KLRKR[Nle]EAKKYLNDLKKGG[Thr(3ξ)]-NH2; lactam 21-25) are 117 nM, “+ (+ 10-30%)” and 4.8.
Take `CCCC[C@H](NC(=O)[C@H](CCCNC(=N)N)NC(=O)[C@H](CCCCN)NC(=O)[C@H](CCCNC(=N)N)NC(=O)[C@H](CC(C)C)NC(=O)[C@H](CCCCN)NC(=O)[C@@H](NC(=O)[C@H](Cc1ccc(O)cc1)NC(=O)[C@H](CC(N)=O)NC(=O)[C@H](CCC(=O)O)NC(=O)[C@@H](NC(=O)[C@H](Cc1ccccc1)NC(=O)[C@H](CO)NC(=O)[C@H](C)NC(=O)[C@H](CC(=O)O)NC(=O)[C@H](C)NC(=O)[C@H](Cc1c[nH]cn1)NC(C)=O)C(C)O)C(C)O)C(=O)N[C@@H](CCC(=O)O)C(=O)N[C@@H](C)C(=O)N[C@@H](CCCCN)C(=O)N[C@H]1CCCCNC(=O)C[C@@H](C(=O)N[C@@H](CC(C)C)C(=O)N[C@@H](CCCCN)C(=O)N[C@@H](CCCCN)C(=O)NCC(=O)NCC(=O)N[C@H](C(N)=O)C(C)O)NC(=O)[C@H](CC(N)=O)NC(=O)[C@H](CC(C)C)NC(=O)[C@H](Cc2ccc(O)cc2)NC1=O` (stereo partly drawn) [Example 17] (Ac-HADASF[Thr(3ξ)]ENY[Thr(3ξ)]KLRKR[Nle]EAKKYLNDLKKGG[Thr(3ξ)]-NH2; lactam 21-25): the 50% effective concentration (EC50) on VPAC2 receptor came out at 23.3 nM. The “Inhibition of LPS-induced neutrophilia” value in data set [1] was “+ (+ 10-30%)”. The compound further came in with a Relative elastase stability in data set [2] of 4.6.
